Tests used:
[1] = target: cleaved human TREX1 (Homo sapiens (Human), UniProt Q9NSU2); assay: TREX1 Thermal Shift Binding Assay (human); conditions: assay buffer, 100 μM compound, 5 μM TREX1; read-out: Thermal shift cleaved human TREX1, (ΔTm ° C.) Assay buffer
Protocol: (§1) Example B is a protein thermal shift assay used to assess the binding of TREX1 inhibitors to TREX1 protein. In this assay, TREX1 protein unfolding with increasing temperature was measured in the presence and absence of TREX1 inhibitors by following the increase in fluorescence of a thiol-reactive dye (e.g BODIPY FL-cystine) as it reacts with exposed TREX1 cysteine residues. The assay was conducted using human (SEQ ID NO: 1), or murine (SEQ ID NO: 2) TREX1 protein constructs.
(§2) The thermal shift assays used recombinant protein corresponding to human (SEQ ID NO: 1) and murine (SEQ ID NO: 2) TREX1. The protein encoding plasmid contained a N-terminal MBP (maltose binding protein) tag followed by the TREX1 coding sequence within the pMAL-c5E vector. The plasmid was transfected into a BL21 (DE3) E. coli expression strain. Protein was purified from the bacterial lysate using an Amylose resin column. The MBP tag was cleaved from the purified protein using recombinant enterokinase (EMD Millipore #69066-3). The cleaved TREX1 protein was further purified on a Q-Sepharose column followed by a heparin column.
(§3) Binding of compounds to both human and murine TREX1 were measured by protein thermal shift assays. (Huynh K, Partch C L. Current Protocols in Protein Science: Analysis of protein stability and ligand interactions by thermal shift assay. Current protocols in protein science/editorial board, John E Coligan. [et al]. 2015; 79:28.9.1-28.9.14. doi:10.1002/0471140864.ps2809s79.). Thermal shift assays were conducted in sealed 96-well PCR plates containing 5 μM TREX1 protein, 100 μM compound, and 2 μM BODIPY FL-cystine (Sigma) in either 20 μL assay buffer (20 mM Tris, 7.5, 5 mM MgCl2, 0.002% Triton X-100) or 20 μL phosphate buffered saline (PBS). Using a RT-qPCR machine (Mx3005P, Stratagene) changes in fluorescence (excitation at 492 nm and emission at 516 nm) were monitored as temperature was increased from 25° C. to 96° C. at a rate of 1° C. every 2 minutes. Tm values were calculated from the first derivative plot of fluorescence intensity versus temperature. The results shown in Table 6 indicate the examples bind to human TREX1 and murine TREX1. ND indicates assay was not done.

[2] = test system: interferon stimulated genes (ISGs) in THP1 Dual cells; assay: RT-qPCR assay of interferon stimulated gene expression; type: cell-based, human; conditions: substance alone, 24 hours, normalized to GAPDH, unstimulated control = 1
Text: Example D is a cell based assay that measures the increase in the expression of interferon stimulated genes (ISG) by RT-qPCR that are induced by TREX1 inhibitors when THP1 Dual™ cells are transfected with double-stranded DNA. The double stranded DNA used to transfect cells was VACV-70 (Invivogen), a 70 base pair oligonucleotide containing viral DNA motifs (Unterholzner L. et al., 2010. IFI16 is an innate immune sensor for intracellular DNA. Nat Immunol. 11(11):997-1004). Activation of cGAS-STING pathway in THP1 Dual™ cells increases the expression of ISGs.
The RT-qPCR assay was used to assess the ability of TREX1 inhibitors to enhance the expression of interferon stimulated genes (ISGs) in cells transfected with double-stranded DNA. The double stranded DNA used to transfect cells was VACV-70 (Invivogen), a 70 base pair oligonucleotide containing viral DNA motifs (Unterholzner L. et al., 2010. IFI16 is an innate immune sensor for intracellular DNA. Nat Immunol. 11(11):997-1004). Human THP1 Dual™ cells (Invivogen), were treated with test compound in the presence or absence of 1,200 ng/mL VACV-70, or with VACV-70 alone, for 24 hours. Cells were harvested by centrifugation and washed with phosphate buffer saline. Total RNA was isolated using Qiagen RNeasy mini kit. Genomic DNA was degraded using Thermo Scientific DNase 1 kit. Total RNA was quantified using a Nanodrop spectrophotometer. Using equal amounts of RNA, cDNA was synthesized using Invitrogen Superstrand III First Strand synthesis kit. Target and reference gene expression levels were determined by RT-qPCR using TaqMan gene expression assays and a Stratagene Mx3005P QPCR system (all reagents were from TaqMan, Applied Biosystems). Data were analyzed by the Comparative CT method. GAPDH was used for normalization. Target genes that were analyzed included interferon stimulated genes (INF-β, CXCL10, IFIT1, IFIT2, IFIT3, IFI44, and IFI44L).

[3] = target: cleaved mouse TREX1 (Mus musculus (Mouse), UniProt Q91XB0); assay: TREX1 Thermal Shift Binding Assay (mouse); conditions: PBS, 100 μM compound, 5 μM TREX1; read-out: Thermal shift cleaved mouse TREX1, (ΔTm ° C.) PBS
cleaved mouse TREX1, sequence (Q91XB0 1-242): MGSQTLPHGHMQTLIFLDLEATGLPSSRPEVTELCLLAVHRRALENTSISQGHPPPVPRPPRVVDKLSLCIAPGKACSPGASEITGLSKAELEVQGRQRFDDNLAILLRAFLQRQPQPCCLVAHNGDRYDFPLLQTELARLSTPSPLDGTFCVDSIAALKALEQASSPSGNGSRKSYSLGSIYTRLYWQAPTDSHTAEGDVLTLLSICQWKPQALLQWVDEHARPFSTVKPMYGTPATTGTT
Protocol: as §1, §2, §3

[4] = test system: THP1 Dual cells (ISRE Lucia reporter, cGAS-STING pathway); assay: THP1 monocyte assay, ISRE Lucia luciferase reporter; type: cell-based, human; conditions: 48 hours, luciferase signal versus control wells without compound
Text: Example C is a cell-based assay for TREX1 inhibitors using THP1 Dual™ cells (Invivogen), a human monocyte cell line that has stable integration of an Interferon Stimulated Response Element (ISRE) Lucia reporter gene. The Lucia gene encodes a secreted luciferase reporter protein, under the control of an ISG54 minimal promoter in conjunction with five IFN-stimulated response elements. Activation of the cGAS-STING pathway in THP1 Dual™ cells leads to enhanced luciferase secretion and increased luminescence.
A cell-based assay was established using THP1 Dual™ cells (Invivogen), a human monocyte cell line that has stable integration of an Interferon Stimulated Response Element (ISRE) Lucia reporter gene. The Lucia gene encodes a secreted luciferase reporter protein, under the control of an ISG54 minimal promoter in conjunction with five IFN-stimulated response elements. Activation of the cGAS-STING pathway in these cells leads to enhanced luciferase secretion. The assay was conducted in standard 384-well white tissue culture plates. Cells (25,000 in 25 μL RPMI 1640 containing 10% Heat-Inactivated FBS, 1× Glutagro, 10 mM HEPES, 1 mM sodium pyruvate, 1× Pen/Strep, 100 μg/mL Normocin, 100 μg/mL Zeocin, 10 μg/mL Blasticidin) were added to the plate followed by 25 μL of compound in the same media+0.2% DMSO. The assay was incubated for 48 hours at 37° C. in 5% CO2. An aliquot of 5 μl was removed to combine with 12.5 μL of the luciferase detection reagent, QUANTI-Luc™ Gold (Invivogen) in a white 384-well plate. The luminescent signal was then read using an EnVision plate reader (Perkin Elmer). The fold activation was calculated by dividing the signal in wells containing test compound by the signal in the control wells without compound (see Table 7).

cleaved human TREX1, sequence (Q9NSU2 1-242): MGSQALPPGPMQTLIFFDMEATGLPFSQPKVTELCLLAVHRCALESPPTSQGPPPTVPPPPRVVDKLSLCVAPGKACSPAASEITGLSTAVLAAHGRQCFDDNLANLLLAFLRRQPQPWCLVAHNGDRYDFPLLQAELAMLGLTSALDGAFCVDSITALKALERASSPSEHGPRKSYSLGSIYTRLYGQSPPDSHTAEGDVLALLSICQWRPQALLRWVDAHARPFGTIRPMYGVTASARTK

Q: With `N[C@@H]1C[C@H]2C(=O)N([C@H](CCC(=O)O)C(=O)NCc3ccc(Cl)c(Cl)c3)CCC(CCc3ccccc3)N2C1` (stereo partly shown) [Example 14B] as the compound, how does the ΔTm at 100 µM [1] read?
A: The ΔTm at 100 µM was over 8 °C.

Q: And the CXCL10 expression [2]?
A: Its CXCL10 expression is 2.

Q: What about the IFI44L expression [2] of the same compound?
A: Its IFI44L expression is 65.

Q: What about the IFI44 expression [2] of the same compound?
A: Its IFI44 expression is 54.

Q: And the IFIT1 expression [2]?
A: The IFIT1 expression was 19.

Q: And the IFIT2 expression [2]?
A: The IFIT2 expression was 44.

Q: And the IFIT3 expression [2]?
A: The IFIT3 expression was 25.

Q: What about the IFN-β expression [2] of the same compound?
A: The IFN-β expression was 7.

Q: What about the ΔTm at 100 µM [3] of the same compound?
A: The ΔTm at 100 µM was over 8 °C.

Q: And the “Fold activation @ 10 μM” value [4]?
A: The value was 12.
